The results in this text go back to BindingDB's records for doi:10.1021/jm00008a008 (Arris Pharmaceutical, 1995).

A short description of the experiment: Tested for activity against 5-hydroxytryptamine 1A receptor from bovine hippocampus.
One may read the Ki as the dissociation constant of the complex between target and ligand, obtained from inhibition or displacement. A higher Ki goes with a looser hold on the target. The compound `COc1cccc2c1C[C@H]1CCN(Cc3ccccc3)[C@H]1C2` [1-Benzyl-5-methoxy-2,3,3a,4,9,9a-hexahydro-1H-benzo[f]indole] yielded a Ki of 1000 nM.

Turning to `COc1cccc2c1C[C@H]1CCN[C@H]1C2` [5-Methoxy-2,3,3a,4,9,9a-hexahydro-1H-benzo[f]indole], the affinity, expressed as Ki, was 1000 nM. Compound `CCCN1[C@H](C)C[C@H]2c3c(O)cccc3CC[C@H]21` [(2R,3aR,9bS)-2-Methyl-3-propyl-2,3,3a,4,5,9b-hexahydro-1H-benzo[e]indol-9-ol] had a Ki of 16 nM. For `COc1cccc2c1CC[C@@H]1[C@H]2CCN1CC1CC1` [(3aR,9bS)-3-Cyclopropylmethyl-6-methoxy-2,3,3a,4,5,9b-hexahydro-1H-benzo[e]indole] the value was 1000 nM. On to `CCCN1CC[C@H]2c3c(cccc3OC)CC[C@@H]21` [(3aS,9bS)-9-Methoxy-3-propyl-2,3,3a,4,5,9b-hexahydro-1H-benzo[e]indole], for which affinity was put at a Ki of 0.2 nM.
